Measurements as given in PMC4305367 (Cancer Chemotherapy and Pharmacology, 2014).
“Also recorded” adds a separate entry of the source.

Tests used:
[1] = tested on: prostate-specific antigen (PSA); assay: Serum PSA levels and PSA response (PCWG2 criteria); type: in vivo, human; conditions: during the study; 15 patients
Method: (§1) The efficacy endpoints were serum PSA levels, PSA response rates based on the Prostate Cancer Clinical Trials Working Group (PCWG) 2 criteria, and objective disease response rates based on the General Rule for Clinical and Pathological Studies on Prostate Cancer and modified RECIST version 1.0. PSA levels were measured on Days 1 and 15 in Cycle 1, on Day 1 of Cycle 2 and each subsequent cycle. Tumor assessments were performed on Day 29, 85, and every 12-week cycle for subsequent cycles.

[2] = tested on: dehydroepiandrosterone sulfate (DHEA-S); assay: Pharmacodynamics: serum DHEA-S; type: in vivo, human; conditions: for Serum DHEA-S: mean (SD), LLOQ 2.0
Method: (§2) Endocrine parameters such as serum testosterone and dehydroepiandrosterone sulfate (DHEA-S) were measured for PD analysis. The blood sample were collected on Days 1, 8, 15, and 22 of Cycle 1 and then on Day 1 of each subsequent 28-day cycle. Assay procedure for testosterone was improved during the study, and the lower limit of quantification (LLOQ) for testosterone changed from 0.05 to 0.03 ng/mL.

[3] = tested on: Japanese patients with castration-resistant prostate cancer; assay: Phase 1 safety assessment: adverse events (NCI-CTCAE v3.0), DLT, laboratory profiles, ECG; type: in vivo, human
Source text: The propriety of transitions to subsequent dose cohort was judged on the basis of the number of patients with dose-limiting toxicities (DLTs) during Cycle 1 (28 days). […] Patients could continue study treatment until criteria for treatment discontinuation were met. The use of aldosterone antagonists (e.g., eplerenone) was allowed for patients with clinical symptoms of mineralocorticoid excess such as hypertension, hypokalemia, and edema.
Safety assessments included the evaluation of adverse events (AEs), laboratory profiles, physical examination, and vital signs throughout the study. AEs were graded using National Cancer Institute Common Terminology Criteria for Adverse Events (NCI-CTCAE) v3.0. Analysis of serum amylase and lipase was added to the clinical laboratory tests before enrollment of patients into the 400-mg BID plus prednisolone cohort because pancreatitis was reported during the study. A safety follow-up was performed for 28 days after the final dose of the study treatment. During Cycle 1 (28 days), DLT was also evaluated. DLTs were defined as any drug-related AE of ≥ Grade 3 and pre-specified cardiac-related AEs of lower grade. Hypertension, hypokalemia, and edema attributed to increased ACTH secretion maintained at Grade 2 or lower through the use of eplerenone were not considered DLTs.

[4] = tested on: castration-resistant prostate cancer; assay: Objective disease response (General Rule for Prostate Cancer; modified RECIST 1.0); type: in vivo, human
Method: as §1

[5] = tested on: serum androgen levels; conditions: monkeys; cited from earlier work
[6] = clinical; conditions: human, in vivo; for AUC(0-t): AUC0–8h; for Cmax: C max
[7] = male, human, in vivo, 24 h
[8] = tested on: serum testosterone; assay: Pharmacodynamics: serum testosterone; type: in vivo, human; conditions: for Serum testosterone: mean (SD), LLOQ 0.05 or 0.03
Method: as §2

[9] = General Rule for Clinical and Pathological Studies on Prostate Cancer, 15 patients

CNC(=O)c1ccc2cc([C@@]3(O)CCn4cncc43)ccc2c1 [Orteronel]
Overall median maximum PSA reduction [1]: 88.48%
Serum DHEA-S ([2]; Cycle 1 Day 8, 200 mg BID (N = 3), screening 114.7 (8.96)): 25.0 (7.21) μg/dL
Serum DHEA-S ([2]; Cycle 1 Day 8, 300 mg BID (N = 3), screening 146.7 (79.83)): 23.3 (14.57) μg/dL
Serum DHEA-S ([2]; Cycle 1 Day 8, 300 mg BID + prednisolone (N = 3), screening 136.0 (52.68)): 6.3 (4.16) μg/dL
Serum DHEA-S ([2]; Cycle 1 Day 8, 400 mg BID (N = 3), screening 60.3 (8.50)): 9.3 (0.58) μg/dL
Serum DHEA-S ([2]; Cycle 1 Day 8, 400 mg BID + prednisolone (N = 3), screening 40.3 (7.57)): 2.3 (0.58) μg/dL
Serum DHEA-S ([2]; Cycle 2 Day 1, 200 mg BID (N = 3), screening 114.7 (8.96)): 30.0 (9.64) μg/dL
Serum DHEA-S ([2]; Cycle 2 Day 1, 300 mg BID (N = 3), screening 146.7 (79.83)): 24.3 (11.93) μg/dL
Serum DHEA-S ([2]; Cycle 2 Day 1, 300 mg BID + prednisolone (N = 3), screening 136.0 (52.68)): 2.3 (0.58) μg/dL
Serum DHEA-S ([2]; Cycle 2 Day 1, 400 mg BID (N = 3), screening 60.3 (8.50)): 19.3 (16.29) μg/dL
Serum DHEA-S ([2]; Cycle 2 Day 1, 400 mg BID + prednisolone (N = 3), screening 40.3 (7.57)): 2.0 (0.00) μg/dL
Suppression of serum DHEA-S ([2]; Day 8): suppressed
Deaths ([3]; during the study, 15 patients): No deaths were reported
Number of SAEs considered related to the study treatment ([3]; in vivo): nine
Patients with acute pancreatitis (Grades 2 and 3) or pancreatitis (Grade 1) ([3]; in vivo): three
Patients with pancreatic-related AEs ([3]; in vivo): ten
Serious AEs (SAEs) in Cycle 1 ([3]; in vivo): Neither DLTs nor serious AEs (SAEs) were reported
TEAEs associated with adrenal insufficiency ([3]; in vivo): No TEAE associated with adrenal insufficiency was reported
Treatment-related SAEs in the 200- and 300-mg BID cohorts ([3]; in vivo): No treatment-related SAE was observed
12-lead ECG and echocardiography findings ([3]; male, human, in vivo): No clinically significant abnormal 12-lead ECG and echocardiography findings were observed
Abnormalities in hematologic test or urinalysis ([3]; male, human, in vivo): No Grade 3 or higher abnormalities were observed
Incidence of constipation (AE) ([3]; male, human, in vivo): 33%
Incidence of hyperamylasemia (AE) ([3]; male, human, in vivo): 40%
Incidence of hyperlipasemia (AE) ([3]; male, human, in vivo): 47%
Mineralocorticoid-related TEAE: hypertension ([3]; male, human, in vivo): 4 n
Mineralocorticoid-related TEAE: hypokalemia ([3]; male, human, in vivo): 3 n
Patients who experienced SAEs ([3]; male, human, in vivo): 60%
Patients with at least 1 TEAE ([3]; male, human, in vivo): 100%
Patients with at least 1 treatment-related AE ([3]; male, human, in vivo): 93%
TEAE subject incidence: Abdominal pain upper ([3]; male, human, in vivo): 2 (13) n (%)
TEAE subject incidence: Blood creatine phosphokinase increased ([3]; male, human, in vivo): 2 (13) n (%)
TEAE subject incidence: Constipation ([3]; male, human, in vivo): 5 (33) n (%)
TEAE subject incidence: Contusion ([3]; male, human, in vivo): 2 (13) n (%)
TEAE subject incidence: Dysgeusia ([3]; male, human, in vivo): 4 (27) n (%)
TEAE subject incidence: Fall ([3]; male, human, in vivo): 2 (13) n (%)
TEAE subject incidence: Hepatic function abnormal ([3]; male, human, in vivo): 4 (27) n (%)
TEAE subject incidence: Insomnia ([3]; male, human, in vivo): 2 (13) n (%)
TEAE subject incidence: Malaise ([3]; male, human, in vivo): 4 (27) n (%)
TEAE subject incidence: Nasopharyngitis ([3]; male, human, in vivo): 3 (20) n (%)
TEAE subject incidence: Nausea ([3]; male, human, in vivo): 3 (20) n (%)
TEAE subject incidence: Rash ([3]; male, human, in vivo): 3 (20) n (%)
TEAE subject incidence: Vomiting ([3]; male, human, in vivo): 2 (13) n (%)
Total number of SAEs ([3]; male, human, in vivo): 14 SAEs
Objective response rate (CR + PR) ([4]; General Rule for Clinical and Pathological Studies on Prostate Cancer, 5/15 patients): 33%
Best response of complete response (CR) [4, 9]: no patient had a best response of complete response (CR)
Patients with best response of partial response (PR) [4, 9]: five
Best response by modified RECIST version 1.0 ([4]; only six patients had measurable disease): No patient had a best response of CR or PR
Effect on serum androgen levels in vivo [5]: reduced serum androgen levels
AUC(0-t) ([6]; 300 mg): 14500 ng·h/mL
AUC(0-t) ([6]; 400 mg): 28600 ng·h/mL
Time to C max (T max), range over cohorts ([6]; male): 1 to 3 h
Tmax ([6]; male, 200 mg): 1 h
AUC(0-t) ([6]; male, 200 mg): 7640 ng·h/mL
Cmax ([6]; male, 200 mg): 1580 ng/mL
Tmax ([6]; male, 300 mg): 3 h
Cmax ([6]; male, 300 mg): 3100 ng/mL
Tmax ([6]; male, 400 mg): 2.97 h
Cmax ([6]; male, 400 mg): 4700 ng/mL
Fractional urinary excretion rate [7]: 36 to 47 % of the dose
Serum testosterone ([8]; Cycle 1 Day 8, 200 mg BID (N = 3), screening 0.153 (0.0611)): 0.050 (0.0000) ng/mL
Serum testosterone ([8]; Cycle 1 Day 8, 300 mg BID (N = 3), screening 0.123 (0.0702)): 0.030 (0.0000) ng/mL
Serum testosterone ([8]; Cycle 1 Day 8, 300 mg BID + prednisolone (N = 3), screening 0.127 (0.0473)): 0.030 (0.0000) ng/mL
Serum testosterone ([8]; Cycle 1 Day 8, 400 mg BID (N = 3), screening 0.057 (0.0115)): 0.050 (0.0000) ng/mL
Serum testosterone ([8]; Cycle 1 Day 8, 400 mg BID + prednisolone (N = 3), screening 0.053 (0.0058)): 0.043 (0.0115) ng/mL
Serum testosterone ([8]; Cycle 2 Day 1, 200 mg BID (N = 3), screening 0.153 (0.0611)): 0.050 (0.0000) ng/mL
Serum testosterone ([8]; Cycle 2 Day 1, 300 mg BID (N = 3), screening 0.123 (0.0702)): 0.030 (0.0000) ng/mL
Serum testosterone ([8]; Cycle 2 Day 1, 300 mg BID + prednisolone (N = 3), screening 0.127 (0.0473)): 0.030 (0.0000) ng/mL
Serum testosterone ([8]; Cycle 2 Day 1, 400 mg BID (N = 3), screening 0.057 (0.0115)): 0.050 (0.0000) ng/mL
Serum testosterone ([8]; Cycle 2 Day 1, 400 mg BID + prednisolone (N = 3), screening 0.053 (0.0058)): 0.037 (0.0115) ng/mL
Suppression of serum testosterone ([8]; by 1 week after initiation (Day 8), across all cohorts): rapidly suppressed below the lower limit of quantification; also recorded: rapidly suppressed to the LLOQ or lower
